Converted amounts (≈) assume the structure as drawn.
Key:
p53 = system: p53; design: method as in PMID 19411067; settings: in vitro; cited from earlier work
[1] = GSH arylation rate constants (NMR; UV-vis for fast warheads); format: physicochemical; design: key to rate constant (k) for the reaction with GSH / k: NR = no reaction; settings: for k: Table S8, rate constants obtained at pH = 7; for k change (vs ref): ratio to rate constant of 4q, acceleration (+) or deceleration (-); for k/kref / ΔΔG≠1exp: relative to 4q; for ΔΔG≠1exp: via -RTln(k/kref); for times less reactive than 4q: GSH
Excerpt: We employed nuclear magnetic resonance (NMR) and UV–vis to quantify the reactivity of our 2-SP derivatives and other representative electrophiles (Figure 2) against cysteine. NMR allowed straightforward determination of reaction rate constants through dual monitoring of the consumption of the warhead and formation of the product by integration of their respective NMR signals (Figures S1–S3). It simultaneously provided a direct readout on reaction specificity and hydrolytic stability of the warhead. All measurements were carried out in KPi buffer in the presence of 5% d^6-dmso, which is generally well-tolerated by a wide range of proteins in in vitro studies. N-acetylcysteine methylester (NACME) and L-glutathione (GSH) are useful model cysteine nucleophiles for in vitro studies of electrophilic agents.[32] Mixing reference electrophile 2-methylsulfonylpyrimidine (4q) with NACME or GSH in a 1:10 ratio (pseudo-first-order conditions) allowed extraction of accurate and reproducible second order rate constants (k).
Figure 3 In vitro determination of electrophilic reactivity of compounds. (A) NMR assay setup for warhead/GSH reaction rate constant determination and chemoselectivity monitoring, over a 6 h time scale. Purple bead = GSH. Hydrolytic stability was determined in the same way over 36 h. d^4-Trimethylsilylpropanoate (TMSP, blue box) was used as an internal standard for monitoring the warhead solubility. Second-order reaction rate constants (k) were obtained from their pseudo-first-order counterparts (k′), by time-dependent normalized integration of the disappearing warhead signals. […] (B) Experimental second-order rate constants (y axis, log10 scale) for the reaction of representative 2-SP derivatives (left, 11 out of ca. 40 examples) and previously reported heteroarylsulfones (right) with GSH in a KPi buffer, pH 7.0, 20 °C. All rate constants were calculated as an average of at least two independent measurements. Numerical values and standard deviations at both pH 7.0 and 6.5, along with a full list of 2-SPs and other electrophile types tested, are presented in Tables S2–S6 and Figure S4. The horizontal dashed line marks the reaction rate of 2-methylsulfonylpyrimidine at pH 7.0, as a reference when comparing with other reagents (see main text).
To establish an accurate structure–reactivity profile of 2-SP reagents, we systematically determined their reaction rate constants for the arylation of GSH by NMR, at pH 7.0 and 6.5. This was a prerequisite to (i) quantify the influence of substitution on reaction rates; (ii) accurately assess the tunability and chemoselectivity of 2-SPs for cysteine arylation; (iii) determine the influence of pH on the reaction rates to further inform on the precise reaction mechanism; and (iv) benchmark the overall performance of 2-SPs with those of previously reported fast reacting heteroarylsulfones and other common cysteine reactive warheads (Figure 2C,D).

[2] = Hydrolytic stability in KPi buffer without thiol (NMR); format: physicochemical; settings: for % degradation: over 12 hours, 50 mM KPi, footnote a: crashing out of solution, no degradation product; for hydrolysis in aqueous buffer (in words): buffer in the absence of GSH
Experimental: NMR studies: rate constant determination and hydrolytic stability. 850 µL of 50 mM Kpi buffer solution (pH 8.2 or 7), 20 µL of the appropriate pyrimidine stock s olution (100 mM in DMSO -d6), 20 µL of TMSP stock solution (22.2 mM in DI water), 30 µL DMSO -d6, and 80 µL of GSH stock solution (0.25 M in DI water, reactivity only) were successively added/mixed at room temperature, final pH 7.0 or 6.5 (Table S1). 600 µL of this freshly prepared solution was poured into an NMR tube and immediately […]
transferred to the NMR instrument for acquisition. 1H spectra (16 scans) were recorded every 10 minutes under water suppression conditions. Following acquisition, spectra were analysed using […]
order reaction rate constants (k’).

[3] = Solubility in KPi buffer by NMR with TMSP internal standard; settings: 50 mM KPi aqueous buffer, pH 7, aqueous with cosolvent or surfactant or cyclodextrin, kinetic from dmso stock
Excerpt: Stability and solubility assays
(§1) TopSpin. Normalised integrations of the pyrimidine aromatic 1H signals in the starting material and
(§2) product were plotted as a function of time (s), using the TMSP peak as standard for integral
(§3) calibration/normalisation and monitoring of compound solubility, allowing extraction of pseudo first
(§4) order reaction rate constants (k’). Second order rate constants (k) were back calculated from the ratio
(§5) of the pseudo first counterparts and the concentration of thiol in solution.
(§6) was confirmed by formation of a single S-arylated product (characteristic 2-alkylthioether signals),
(§7) concomitant with formation of the sulfinic acid by -product (leaving group). Hydrolytic stability
(§8) assessment was performed at pH 7.0 and pH 8.2 in a similar manner, in the absence of thiol.
(§9) Chemoselectivity. Similarly, but replacing GSH by other amino acids , reference 2-
(§10) methylsulfonylpyrimidine 4q in 50 mM KPi (pH 8.2) was incubated with 10 equivalents of either Boc-
(§11) Lys-OH, L-ser-OMe, N-Ac-Tyr-OH or Proline were used.

[4] = design: method as in PMID 11747461; settings: cited from earlier work
[5] = pH 7
Excerpt: Stability and solubility assays
as §1, §2, §3, §4, §5, §6, §7, §8, §9, §10, §11

p53-Y220C DBD = molecular target: T1, p53-Y220C DBD (Homo sapiens, UniProt P04637, M133L/N239Y/N268D/V203A/Y220C); experiment: Protein arylation by ESI mass spectrometry; format: binding
T1 construct: (residues 94-312); 6xHis/lipoyl domain/TEV protease cleavage site (N, cleaved yes); made in house; host or cells: E. coli C41
Experimental: In mass spectrometry experiments, we incubated 50 μM purified p53-Y220C DBD in KPi buffer at varying pH’s (6.0–8.0), temperatures (0 and 20 °C), and equivalents of 2-SPs (20–100). Representative 2-SPs were selected to span a broad reactivity range to determine whether trends observed in GSH in vitro assays translate to relative rates of modification of solvent exposed cysteines in folded proteins. […] The same could also be achieved with only 20 equiv of reagent by increasing the temperature to 20 °C, or raising the pH to 8.0. This is an important result because late-stage protein functionalization with bromo- and iodo-(hetero)aromatic motifs is challenging and inaccessible by metal-catalyzed arylation methodologies due to dehalogenation and/or off-target specificity. The introduction of an iodo-(hetero)aromatic motif on the protein surface facilitates drastically the crystal structure resolution with a sharp variation of density. […] Overall, we observed good correlation between GSH and protein experiments.
Figure 4 Biophysical and structural characterization of protein cysteine arylation by 2-SPs. […] Stoichiometry, reaction time/temperature, and pH are indicated in each case. X axis: m/z (Da). Y axis: normalized intensities as a percentage of the most intense peak. Middle: Structure of the modified Y220C mutant (green) superimposed onto the structure of the unmodified protein (gray, PDB entry 6SHZ)[40] showing the region around modified C182 (E) and C277 (F). Hydrogen bonds formed by the pyrimidine are highlighted as dashed yellow lines. 2Fo – Fc electron density maps are shown at a contour level of 1.3σ for segments of chain B including the modified residues C182 and C277. Bottom (F): Protein thermal stability (ΔTm, °C) of p53-Y220C, β-catenin ARD. and FGE, determined by DSF in the presence of 100 μM 2-SP derivatives. […]

[6] = pH 6.5, by NMR, KPi buffer, 5% DMSO-d6
[7] = pH 7.0, by NMR, KPi buffer, 5% DMSO-d6
[8] = pH 6.5, measured by UV titrations
[9] = pH 7.0, measured by UV titrations

Row | Molecule | k [1] | rate constant (k) for the reaction with GSH [1, 6] | rate constant (k) for the reaction with GSH [1, 7] | k change (vs ref) ([1]; pH 7.0) | % degradation ([2]; pH 8.2) | solubility [3] | melting point | second order rate constant k with GSH ([1]; pH 7.0, KPi buffer) | further results
1 | C=C1C(=O)C2CCN1CC2 [APR-244-MQ] |  |  |  |  |  |  |  |  | number of cysteines reacted (p53): up to nine
2 | CS(=O)(=O)c1ncc(Cl)cn1 [4s] | 0.19 M⁻¹ s⁻¹ | 0.027 ± 0.012 M⁻¹ s⁻¹ | 0.19 ± 0.11 M⁻¹ s⁻¹ | +8 fold | 7% | ≥ 2000 µM |  |  | k/kref [1]: 7.6; ΔΔG≠1exp [1]: -1.2 kcal/mol
3 | CSc1ncc(I)cn1 [2u] |  | NR | NR |  |  |  | 104 °C |  | 
4 | Cc1cnc(S(C)(=O)=O)nc1 [4o] | 0.0017 M⁻¹ s⁻¹ | NR | 0.0017 ± 0.0015 M⁻¹ s⁻¹ | -15 fold | < 5% | ≥ 2000 µM |  |  | k/kref [1]: 0.068; ΔΔG≠1exp [1]: 1.6 kcal/mol
5 | COC(=O)[C@H](CS)NC(C)=O [NACME, N-acetylcysteine methylester] |  |  |  |  |  |  |  |  | pKa of the sulfhydryl group [4]: 8.3
6 | Cc1cc(C)c(C#N)c(S(C)(=O)=O)n1 [compound 11, 4,6-dimethyl-2-(methylsulfonyl)nicotinonitrile, reference compound] |  | 0.00045 ± 5e-05 M⁻¹ s⁻¹ | 0.0023 ± 0.00025 M⁻¹ s⁻¹ | -11 fold |  | ≥ 2000 µM |  |  | times less reactive than 4q ([1]; pH 7.0): ca. 5 times
7 | CS(=O)(=O)c1ncc(N)cn1 [4m] |  | NR | NR |  |  |  | 138 °C | < 5.0 × 10^–5 M^–1 s^–1 | 
8 | CS(=O)(=O)c1nnnn1-c1ccccc1 [compound 7, 1-phenyl 5-methylsulfonyl tetrazole, reference compound] |  |  |  | +170 fold | 8% | ≥ 2000 µM |  | ≈ 4.3 M^–1 s^–1 | % degradation ([2]; pH 7.0): < 5%
9 | CSc1ncc([N+](=O)[O-])cn1 [2w] |  | 0.00025 ± 0.00016 M⁻¹ s⁻¹ | 0.0034 ± 0.0016 M⁻¹ s⁻¹ |  |  |  | 84 °C |  | 
10 | CSc1ncc(-c2ccccc2)cn1 [2p] |  | NR | NR |  |  |  | 98 °C |  | 
11 | CS(=O)(=O)c1nc2ccccc2s1 [compound 9, 2-Methysulfonylbenzothiazole, reference compound] | 0.23 M⁻¹ s⁻¹ | 0.063 ± 0.023 M⁻¹ s⁻¹ | 0.23 ± 0.035 M⁻¹ s⁻¹ | +9 fold | < 5% | ≥ 2000 µM |  | ≈ 0.23 M^–1 s^–1 | k/kref [1]: 9.2; ΔΔG≠1exp [1]: -1.31 kcal/mol; % degradation ([2]; pH 7.0): 15%
12 | COc1nc(OC)nc(S(C)(=O)=O)n1 [compound 19, 2,4-dimethoxy-6-(methylsulfonyl)-1,3,5-triazine] | unstable |  |  |  |  |  |  |  | hydrolysis in aqueous buffer (in words) [2]: rapid hydrolysis in aqueous buffers or by trace/ambient moisture
13 | CSc1ncc(C(=O)O)cn1 [2v] |  | NR | NR |  |  |  | 251 °C |  | 
14 | Cc1cc(C)c([N+](=O)[O-])c(S(C)(=O)=O)n1 [compound 12, 4,6-dimethyl-2-(methylsulfonyl)-3-nitropyridine, reference compound] | 0.0028 M⁻¹ s⁻¹ | 0.00075 ± 0.00025 M⁻¹ s⁻¹ | 0.0028 ± 0.00025 M⁻¹ s⁻¹ | -9 fold | < 5% | ≥ 2000 µM |  |  | times less reactive than 4q ([1]; pH 7.0): ca. 5 times; k/kref [1]: 0.11; ΔΔG≠1exp [1]: 1.29 kcal/mol; % degradation ([2]; pH 7.0): < 5%
15 | 2-methylsulfonyl-1,3,4-oxadiazole 5-phenyl [compound 8, reference compound] |  |  |  | +6,400 fold |  |  |  | ≈ 160 M^–1 s^–1 | rate constant (k) for the reaction with GSH [1, 8]: 35 ± 2 M⁻¹ s⁻¹; rate constant (k) for the reaction with GSH [1, 9]: 160 ± 9.2 M⁻¹ s⁻¹; Solubility upon mixing (t0) [5]: 100 µM
16 | CS(=O)(=O)c1ncc([N+](=O)[O-])cn1 [4w] |  |  |  | +1,880 fold |  | ~130 µM (≈ 26.4 µg/mL) | 113 °C |  | rate constant (k) for the reaction with GSH [1, 8]: 15 ± 0.4 M⁻¹ s⁻¹; rate constant (k) for the reaction with GSH [1, 9]: 47 ± 1 M⁻¹ s⁻¹; hydrolysis in aqueous buffer (in words) [2]: partial, slow hydrolysis
17 | COC(=O)c1cnc(S(C)(=O)=O)nc1 [4y] | 9900 M⁻¹ s⁻¹ |  |  | +396,000 fold | 100% | ≥ 2000 µM | 128 °C | ≈ 9900 M^–1 s^–1 | k/kref [1]: 396000; ΔΔG≠1exp [1]: -7.65 kcal/mol; protein arylation by ESI-MS (in words) (p53-Y220C DBD; 20 equiv, pH 6.0, 0 °C): complete and clean double protein arylation; time to complete double arylation (p53-Y220C DBD; 20 equiv, pH 6.0, 0 °C): under 30 s
18 | COc1cnc(S(C)(=O)=O)nc1 [4n] |  | NR | NR |  |  |  |  | < 5.0 × 10^–5 M^–1 s^–1 | protein modification by ESI-MS (in words) (p53-Y220C DBD; 50 μM protein, all conditions tested, even after 4 h at 20 °C): could not detect any protein modification
19 | N[C@@H](CCC(=O)N[C@@H](CS)C(=O)NCC(=O)O)C(=O)O [GSH, L-glutathione] |  |  |  |  |  |  |  |  | pKa of the sulfhydryl group [4]: 9.2
